Measurements reported in patent US11976083B2, “Inhibitors of peptidylarginine deiminases” (Gilead Sciences, Inc., priority 2020, dated 2024).

Biological target: T1, human PAD4 (Homo sapiens, UniProt Q9UM07)
T1 construct: human PAD4 (NM_012387), A2-P663, was PCR amplified; His-SUMO (N, cleaved yes); made in house; host or cells: E. coli BL21(DE3)
Assay: In vitro PAD4 BAEE biochemical assay
Conditions: BAEE substrate 3 mM, 5 nM PAD4, 2 mM calcium chloride; geometric mean of multiple experiments
Procedure, shortened: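 Recombinant human PAD4 (5 nM final) with 2 mM CaCl2 was preincubated with compound 30 min at 25 °C in MOPS buffer pH 7.6, then reacted with 3 mM BAEE for 2 h at 25 °C. After EDTA stop, released ammonia was detected by o-phthalaldehyde/DTT fluorescence (ex 405/em 535 nm); IC50 from four-parameter fit, geometric mean.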

T1 sequence (Q9UM07 2-663): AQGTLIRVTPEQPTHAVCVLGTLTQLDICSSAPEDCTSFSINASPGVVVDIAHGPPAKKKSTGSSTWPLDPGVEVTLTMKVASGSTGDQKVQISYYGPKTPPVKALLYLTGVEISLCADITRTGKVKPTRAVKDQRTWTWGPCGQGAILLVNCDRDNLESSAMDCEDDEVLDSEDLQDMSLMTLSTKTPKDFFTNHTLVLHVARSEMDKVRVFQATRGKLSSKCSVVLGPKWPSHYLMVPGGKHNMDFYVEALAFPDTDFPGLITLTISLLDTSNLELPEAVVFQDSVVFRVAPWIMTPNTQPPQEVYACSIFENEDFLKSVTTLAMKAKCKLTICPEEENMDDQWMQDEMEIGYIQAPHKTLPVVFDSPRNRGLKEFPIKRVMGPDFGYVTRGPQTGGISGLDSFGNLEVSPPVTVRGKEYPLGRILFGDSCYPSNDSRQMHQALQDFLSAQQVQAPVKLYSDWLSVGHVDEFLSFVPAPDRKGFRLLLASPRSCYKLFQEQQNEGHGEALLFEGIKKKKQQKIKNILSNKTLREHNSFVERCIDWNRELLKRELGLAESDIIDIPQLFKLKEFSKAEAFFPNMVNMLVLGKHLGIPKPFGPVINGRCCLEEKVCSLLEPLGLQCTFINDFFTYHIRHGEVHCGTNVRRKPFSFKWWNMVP

| SMILES | IC50 |
| --- | --- |
| COc1cc(C(=O)N2[C@H]3CC[C@@H]2[C@H](N)C3)cc2nc(-c3cc4ccc5nc4n3CCCCCCCCCC(=O)N[C@@H]5C)c(C)n12 [Example 287, (13~{R})-19-[7-[(1~{R},2~{R},4~{S})-2-amino-7-azabicyclo[2.2.1]heptane-7-carbonyl]-5-methoxy-3-methyl-imidazo[1,2-a]pyridin-2-yl]-13-methyl-1,12,21-triazatricyclo[12.5.2.0^{17,20}]henicosa-14(21),15,17(20),18-tetraen-11-one] | 55 nM |
| COc1cc(C(=O)N2CC[C@@H](OC(F)F)[C@@H](N)C2)cc2nc(-c3cc4ccc5cc4n3CCCCCc3nccnc3C(=O)N[C@@H]5C)n(C)c12 [Example 577, (2~{R})-17-[5-[(3~{S),4~{R})-3-amino-4-(difluoromethoxy)piperidine-1-carbonyl]-7-methoxy-1-methyl-benzimidazol-2-yl]-2-methyl-3,6,9,16-tetrazatetracyclo [14.5.2.0^{5,10}.0^{19, 23}]tricosa-1(22),5(10), 6,8,17,19(23),20-heptaen-4-one] | 84 nM |
| C[C@H]1NC(=O)[C@@H]2C[C@H]2CCCCCn2c(-c3nc4cc(C(=O)N[C@H]5CNCC[C@@H]5F)cc(C(F)(F)F)c4n3C)cc3ccc1nc32 [Example 562, ~{N}-[(3~{S},4~{S})-4-fluoro-3-piperidyl]-1-methyl-2-[(2~{R},5~{R},7~ {R})-2-methyl-4-oxo-3,13,19-triazatetracyclo [11.5.2.0^{5,7}.0^{16,20}]icosa-1(19),14,16(20), 17-tetraen-14-yl]-7-(trifluoromethyl) benzimidazole-5-carboxamide] | 466 nM |
| C[C@H]1NC(=O)[C@@]2(C)C[C@@H]2CCCCCn2c(-c3nc4cc(C(=O)N[C@H]5CNCC[C@@H]5F)c(F)cc4n3C3CC3)cc3ccc1nc32 [Example 545, 1-cyclopropyl-2-[(2~ {R},5~{S},7~{S})-2,5-dimethyl-4-oxo-3,13,19-triazatetracyclo[11.5.2.0^ {5,7}.0^{16,20}]icosa-1(19),14,16(20), 17-tetraen-14-yl]-6-fluoro-~{N}-[(3~ {S},4~{S})-4-fluoro-3-piperidyl]benzimidazole-5-carboxamide] | 56 nM |
| COc1cc(C(=O)N2CC[C@@H](OC)[C@@H](N)C2)cc2nc(-c3cc4ccc5nc4n3CCCCCc3nccnc3C(=O)N(C)[C@@H]5C)n(C)c12 [Example 855, (2~{R})-17-[5-[(3~{S},4~{R})-3-amino-4-methoxy-piperidine-1-carbonyl]-7-methoxy-1-methyl-benzimidazol-2-yl]-2,3-dimethyl-3,6,9,16,22-pentazatetracyclo[14.5.2.0^ {5,10}.0^1923]tricosa-1(22),, 5(10),6,8,17,19(23),20-heptaen-4-one] | 65 nM |

These reach a lower IC50. Values come first.

| IC50 | SMILES |
| --- | --- |
| 33 nM | C[C@H]1NC(=O)c2ccc(Cl)nc2CCCCCn2c(-c3nc4cc(C(=O)N5CC[C@H]6CC[C@@H]5[C@@H]6N)cc(F)c4n3C3CC3)cc3ccc1nc32 [Example 774, (2~{R})-17-[5-[(1~{R},5~{R}, 8~{R})-8-amino-2-azabicyclo [3.2.1]octane-2-carbonyl]-1-cyclopropyl-7-fluoro-benzimidazol-2-yl]-8-chloro-2-methyl-3,9,16,22-tetrazatetracyclo[14.5.2.0^ {5,10).0^{19,23}]tricosa-1(22),5(10),6,8,17,19(23),20-heptaen-4-one] |
| 44 nM | COc1cc(C(=O)N2[C@H]3CC[C@@H]2[C@H](N)C3)cc2nc(-c3cc4ccc5nc4n3CCCCCCCC(=O)N[C@@H]5C)n(C3CC3)c12 [Example 250, (11~{R})-17-[5-[(1~{R},2~{R},4~{S})-2-amino-7-azabicyclo[2.2.1]heptane-7-carbonyl]-1-cyclopropyl-7-methoxy-benzimidazol-2-yl]-11-methyl-1,10,19-triazatricyclo[10.5.2.0^{15,18}]nonadeca-12(19),13,15(18),16-tetraen-9-one] |
